Measurements as given in US12624019B2, “Indazole derivative, and preparation method therefor and use thereof” (Leadingtac Pharmaceutical (Shaoxing) Co., Ltd., priority 2020, dated 2026).

Experiments:
IRAK4 kinase = target: T1, IRAK4 kinase (Homo sapiens, UniProt Q9NWZ3); test: IRAK4 kinase activity test (KinEASE-STK HTRF kit); type: biochemical; conditions: IRAK4 kinase inhibition, 7 μM ATP, 37° C. 120 min
T1 sequence (Q9NWZ3 1-460): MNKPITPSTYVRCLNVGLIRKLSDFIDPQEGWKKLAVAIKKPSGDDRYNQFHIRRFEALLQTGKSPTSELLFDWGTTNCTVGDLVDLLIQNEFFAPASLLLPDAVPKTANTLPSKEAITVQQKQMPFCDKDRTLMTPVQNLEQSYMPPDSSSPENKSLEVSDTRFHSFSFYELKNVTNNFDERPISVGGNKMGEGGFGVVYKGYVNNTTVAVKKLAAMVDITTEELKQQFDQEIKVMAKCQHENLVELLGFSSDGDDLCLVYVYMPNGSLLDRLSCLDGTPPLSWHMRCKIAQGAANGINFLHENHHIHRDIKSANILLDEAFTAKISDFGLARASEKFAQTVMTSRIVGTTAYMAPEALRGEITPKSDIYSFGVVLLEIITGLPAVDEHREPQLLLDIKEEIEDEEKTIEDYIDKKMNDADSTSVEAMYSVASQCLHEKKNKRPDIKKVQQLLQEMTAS
Method: KinEASE-STK Si serine/threonine kinase kit (Cisbio) was used to detect the inhibitory effect of the compound on IRAK4 kinase activity. The specific method was: the compound was dissolved in dimethyl sulfoxide, and then it was diluted with the buffer solution of the kit by equal gradient to make the final concentration range of the tested compound in the reaction system 10000 nM-0.038 nM, then 2.5 nM kinase, 1 μM biotinylated polypeptide substrate and 7 μM adenosine triphosphate (ATP) were added in sequence and incubated at 37° C. for 120 min. Subsequently, anti-phosphorylated serine/threonine antibody coupled with europium element compound and modified XL665 streptavidin were added to the reaction system to terminate the reaction. After incubating at room temperature for 1 h, the fluorescence intensity of each well at the emission wavelength of 620 nm and 665 nm and the excitation wavelength of 337 nm was determined in HTRF mode on the microplate reader EnVision (PerkinElmer), the ratio value was calculated using the formula Ratio=(665 nm/620 nm)×10^4. By comparing with the fluorescence intensity ratio of the control group, the inhibition rate of the compound at each concentration was calculated, and then the IC50 value of the compound was obtained by fitting the nonlinear curve with the logarithmic concentration-inhibition rate by GraphPad Prism 7.

[1] = target: T2, IRAK4 kinase protein in THP-1 cells (Homo sapiens, UniProt Q9NWZ3); test: Degradation of IRAK4 in THP-1 cells by Western Blot; type: cell-based; conditions: 24 hours
T2 construct: endogenous in cells; host or cells: THP-1 cells
T2 sequence (Q9NWZ3 1-460): T1 sequence (Q9NWZ3 1-460)
Method: Each well of the 24-well cell culture plate was inoculated with 0.95 mL THP-1 cells (stem cell bank of Chinese academy of sciences) with a cell density of 5×10^5 cells/well. The cell plate was placed in a 5% carbon dioxide incubator and cultured overnight at 37° C., then 50 μL compound in dimethyl sulfoxide was added. The final concentration of the compound was in the range of 1-3000 nM. After continuous cultivation for 24 hours, the cells were collected into a 1.5 mL centrifuge tube, centrifuged at 1000 rpm and 4° C. for 5 minutes. Cell precipitation was washed twice with 1×DPBS, resuspended cells were lysed with 200 μL lysate (cell lysate was Western and IP cell lysate (Beyotime), supplemented with 1 mM mixture of phenylmethylsulfonyl fluoride and protease inhibitor (Beyotime)), left on ice for 30 minutes, then centrifuged at 14000 g at 4° C. for 10 minutes, and the supernatant was taken to detect IRAK4 protein level by Western blot.
The total protein concentration in the supernatant of cell lysis was determined by BCA protein quantitative kit (Tiangen). According to the concentration of total protein detected by BCA, the supernatant was adjusted to […] with PBS and 5×SDS-PAGE protein loading buffer (Beyotime), bathed in water at 100° C. for 10 minutes, then placed in ice bath for 5 minutes, centrifuged at 14000 g and 4° C. for 5 minutes, and then collected as WB loading sample. Prefabricated glue (KeyGEN) was used for protein electrophoresis with a loading amount of 10 μL (total protein 2 μg). After Tris-MOPS-SDS electrophoresis solution (Adamas), 120V constant pressure electrophoresis was performed. After electrophoresis, the protein on the adhesive strip was transferred to PVDF membrane with a constant current of […] for 50 minutes. After the membrane was transferred, the membrane was added in 1×QuickBlock blocking buffer (Beyotime) and incubated for 30 minutes at room temperature. After blocking, PVDF membranes were incubated with IRAK4 primary antibody (Abcam) overnight at 4°, the membranes were washed with TBST buffer (2.4 g Tris, 8.8 g NaCl, 1.5 mL Tween 20, pH adjusted to 7.4, constant volume to 1 L) for 30 minutes, incubated with secondary antibody (Abcam) for 2 hours at room temperature, finally incubated with Clarity Western ECL Substrate (BIO-RAD) for 5 minutes for luminescence development, chemiluminescence imaging system (Clinx, chemiScope 6200 Touch) was used for development and protein mapping photography. The protein map was analyzed by Clinx chemiluminescence analysis software for grayscale values. Using the formula: grayscale correction value=(target protein grayscale value/corresponding internal reference grayscale value)×[…], the grayscale correction value of each sample was calculated. The degradation rate was calculated by comparing with the grayscale correction value of the control group. Furthermore, DC50 and Dmax values of the compound were obtained by the nonlinear curve fitting with the logarithmic concentration-inhibition rate by GraphPad Prism 7.

IC50 (IRAK4 kinase): 55.7 nM | DC50 ([1]; IRAK4 degradation in THP-1 cells, read-out: WB DC50): 11.9 nM | Dmax ([1]; IRAK4 degradation in THP-1 cells, read-out: WB Dmax): 90.9% | WB D(%) (300 nM) ([1]; degradation percentage of IRAK4 in THP-1 cells, compound 300 nM): 89.5% | WB D(%) (1000 nM) ([1]; degradation percentage of IRAK4 in THP-1 cells, compound 1000 nM): 87.3%
SMILES: CC(C)(O)c1cc2nn(C3CCN(CCCC4CCN(c5ccc6c(c5)C(=O)N(C5CCC(=O)NC5=O)C6=O)CC4)CC3)cc2cc1NC(=O)c1cccc(C(F)(F)F)n1 (centres unmarked) [Example 6, N-(2-(1-(3-(1-(2-(2,6-dioxopiperidin-3-yl)-1,3-dioxoisoindolin-5-yl)piperidin-4-yl)propyl)piperidin-4-yl)-6-(2-hydroxyprop-2-yl)-2H-indazol-5-yl)-6-(trifluoromethyl) pyridinecarboxamide]
